The values below are quoted from earlier work in patent US20040175342A1, “Process of making and using composition containing oxidation-sensitive hydrophilic active principle and maleic anhydride copolymer” (L'OREAL, priority 2002, published 2004).

Each structure is given as a SMILES string.

Data set [1] relates to reconstructed epidermides.
Data set [2] deals with reconstructed epidermides. The conditions noted are these: after treatment.
Data set [3] relates to keratinocytes.

Consider `O=C1O[C@H]([C@@H](O)CO)C(O)=C1O` [Ascorbic acid, ascorbic acid], for which the synthesis of ceramides result in data set [1] was “increase”. Moreover, in data set [2], the “barrier function of reconstructed epidermides” value is recorded as “improved”. In data set [3], the “effect on differentiation of keratinocytes” value is on record as “prodifferentiating effect”.
For the compound `O=C1O[C@H]([C@@H](O)CO)C(O)=C1O[C@H]1O[C@H](CO)[C@@H](O)[C@H](O)[C@H]1O` [ascorbyl glucoside], the synthesis of ceramides result in data set [1] was “this effect has also been demonstrated”.
With `O=C1O[C@H]([C@@H](O)CO)C([O-])=C1OP(=O)([O-])[O-].O=C1O[C@H]([C@@H](O)CO)C([O-])=C1OP(=O)([O-])[O-].[Mg+2].[Mg+2].[Mg+2]` [magnesium ascorbyl phosphate], the bioavailability entry is reported as “very low”. Besides, the synthesis of ceramides entry in data set [1] is “this effect has also been demonstrated”.
